According to patent US20130331345A1, “PUERARIN HYDRATES, PREPARATION METHODS AND USES THEREOF” (priority 2010, published 2013):

Experiments:
[1] = system: cerebral ischemia-reperfusion; test: Effects on cerebral ischemia-reperfusion in rats (NO, NOS, MDA, SOD in brain tissue); type: in vivo, Wistar male rats; conditions: rats after ischemia-reperfusion, 400 mg/kg intragastric twice per day, monohydrate
Experimental: 36 Wistar male rats, body weight 250-300 g, were randomly divided into 3 groups: sham operation group, ischemia-reperfusion group, and the present invention drug group, 12 rats per group. The rats of the present invention drug group were intragastrically administered with physiological saline suspension of puerarin monohydrate (prepared by method of Example 1) in a dose of 400 mg/kg, volume of 2 ml, twice per day, for consecutive 7 days, and cerebral ischemia operation was performed 60 min after the last administration; the rats of sham operation group and the ischemia-reperfusion group were administered separately with isometric physiological saline 2 ml.
The rats were anesthetized with 10% chloral hydrate (3.5 ml/kg) by intraperitoneal injection, fixed at supine position, and molded by a modified Zea Longa suture method referring to document (Journal of Shanghai Jiaotong University (medical Science), 2007, 27(10): 1218-1222); suture was inserted only 10 mm in sham operation group, and the other steps were the same as the model groups. […] After successful modeling, the rats of the present invention drug group were administered twice per day in the same dose as above, while those of the sham operation group and the ischemia-reperfusion group were administered isometric physiological saline 2 ml. Sutures were drawn out 2 hours after modeling, the rats were executed 24 hours after reperfusion, and their brain weights were measured rapidly. 10% brain tissue homogenates were prepared at low temperature with physiological saline, centrifuged under 3000 r/min for 10 min at low temperature, the deposit was discarded, and the supernatant was taken and measured with commercial kits of SOD, MDA, NO, NOS according to their specifications to determine contents or activities of SOD, MDA, NO, NOS.

[2] = Accelerated stability test (40° C., RH75%), sealed in penicillin bottles; type: physicochemical; conditions: accelerated, 40° C.
Experimental: (§1) The sample of the puerarin hydrate above (prepared by method of Example 1) and anhydrous puerarin (anhydrous puerarin was prepared by: drying the hydrate as prepared in Example 1 at 90-105° C. in the presence of phosphorus pentoxide under vacuum for 24-72 hours or more to obtain an anhydrous puerarin, and the water content of anhydrous puerarin was usually lower than 1.0% as measured by Karl Fisher method) were sealed in penicillin bottles to perform accelerated stability test (chromatography conditions: chromatography column: C18 (150 mm×4.6 mm, 5 μm); mobile phase: 0.1% citric acid solution-methanol (75:25); flow rate: 1 ml/min; temperature: room temperature; detection wavelength: 250 nm). […] Hygroscopicity test was performed according to the Pharmacopoeia of the People's Republic of China: about 5 g of anhydrous puerarin and the crystalline hydrate of the present invention were taken, placed in dry watch glasses with constant weight, weighed precisely. Samples were taken separately at 0 h and 48 h of the test at 25° C. and relative humidity of 75%, and hygroscopicity weight gain percentages were calculated.

[3] = Hygroscopicity test according to the Pharmacopoeia of the People's Republic of China; type: physicochemical; conditions: 48 h, 25° C., relative humidity 75%; monohydrate
Experimental: as §1

[4] = listed as The present invention drug
[5] = listed as the present invention drug

## O=c1c(-c2ccc(O)cc2)coc2c([C@@H]3O[C@H](CO)[C@@H](O)[C@H](O)[C@H]3O)c(O)ccc12 [Sample 1, puerarin monohydrate]
[1]; [4]
  MDA in brain tissue: 2.54 ± 0.57 nmol/mL
  NO in brain tissue: 26 ± 6.13 µmol/L
  NOS in brain tissue: 23 ± 5.22 U/ml
  SOD in brain tissue: 243 ± 19.66 U/ml
[1]; [5]
  MDA in brain tissue: significantly decreased
  NO in brain tissue: significantly decreased
  NOS in brain tissue: decreased
  SOD in brain tissue: increased significantly
[2]; sampling time 0 month
  Marked content (%): 99.5%
  Property: off-white powder
  Related substance (%): <2%
[2]; sampling time 1 month
  Marked content (%): 99.3%
  Property: off-white powder
  Related substance (%): <2%
[2]; sampling time 2 month
  Marked content (%): 99.6%
  Property: off-white powder
  Related substance (%): <2%
[2]; sampling time 3 month
  Marked content (%): 99.4%
  Property: off-white powder
  Related substance (%): <2%
[2]; sampling time 6 month
  Marked content (%): 99.3%
  Property: off-white powder
  Related substance (%): <2%
[3]
  In comparison with 0 h, weight gain, %: 0.12%
